Measurements taken from patent US5602167A, “4-arylcyclohepta[c] pyrrole analgesics” (Ortho Pharmaceutical Corporation, priority 1995, dated 1997).

Test: Mouse Acetylcholine Bromide-Induced Abdominal Constriction Assay
Format: in vivo
Conditions: 30 mg/kg po, 30 min before 5.5 mg/kg i.p. acetylcholine bromide, % analgesia

Compound	% Inhibition at 30 mg/kg (route)
CN1C[C@H]2CCCC[C@](O)(c3ccccc3)[C@H]2C1 (relative stereo) [Cp-1]	93%
COc1cccc([C@@]2(O)CCCC[C@@H]3CN(C)C[C@@H]32)c1 (relative stereo) [Cp-2]	80%
CN1C[C@H]2CCCC[C@](O)(c3ccc(F)cc3)[C@H]2C1 (relative stereo) [Cp-3]	100%
CN1C[C@H]2CCCC[C@H](c3ccccc3)[C@H]2C1 (relative stereo) [Cp-4]	80%
CN1C[C@H]2CCCC[C@@H](c3ccccc3)[C@H]2C1 (relative stereo) [Cp-5]	100%
CN1C[C@H]2CCCC[C@H](c3ccc(F)cc3)[C@H]2C1 (relative stereo) [Cp-6]	93%
CN1C[C@H]2CCCC[C@@H](c3ccc(F)cc3)[C@H]2C1 (relative stereo) [Cp-7]	100%

Same assay, conditions: 30 mg/kg sc, 5.5 mg/kg i.p. acetylcholine bromide, % analgesia

Compound	% Inhibition at 30 mg/kg (route)
COc1cccc([C@H]2CCCC[C@@H]3CN(C)C[C@@H]32)c1 (relative stereo) [Cp-8]	100%
COc1cccc([C@@H]2CCCC[C@@H]3CN(C)C[C@@H]32)c1 (relative stereo) [Cp-9]	90%
